# Measurements from article PMC5995442, “Drug discovery with an RBM20 dependent titin splice reporter identifies cardenolides as lead structures to improve cardiac filling” (PLoS ONE, 2018).
# “Also recorded” adds a separate entry of the source. Where two headings read alike, the source gives them in different places. Residues, ends and D or L forms follow the SMILES beside them. *: point of attachment. Cbz = O=C(OCc1ccccc1)*
# Key:
# [1] = test system: RBM20 dependent titin PEVK4-13 splicing reporter; assay: Dual luciferase splicing reporter assay (DLR assay), RBM20 co-transfected; assay type: cell-based, human; conditions: for IC50: Homo sapiens
# Source text: The objective of our study was to identify and evaluate small molecules with the potential to modulate alternative splicing via an unbiased chemical high-throughput screening approach. Using transient transfection of a dual luciferase splicing reporter assay (DLR-assay) in HEK293.EBNA cells and a RBM20 expression construct, we investigated >34.000 substances for their effect on alternative exon exclusion from our RBM20 dependent titin PEVK4-13 splicing reporter. For the primary screen (pilot screen), each compound was tested at 10 μM (single point) and compared to an untreated control. Positive hits leading to differential exon usage (exceeding three standard deviations) were picked for independent validation in 9 serial 2-fold dilutions starting at 20 μM. Compounds that produced a concentration dependent effect were validated manually in the 96-well format and cytotoxicity was evaluated. To minimize the detection of false positives, we excluded compounds with structural homology to each luciferase’s natural substrate. To determine the EC50 of candidates we calculated dose response curves using a non-linear least-squares fitting routine available within the GNUPLOT package (accessible online: http://ic50.tk/index.html). […] Compounds that produced a concentration depend effect in the DLR-assay and altered the alternative transcript levels were regarded as validated alternative splicing modulators.
# (§1) Cells transfected were at a confluency of 50-60%.
# 5000 HEK293.EBNA cells were seeded in clear bottom, white 384-well plates (Corning by Sigma-Aldrich Chemie GmbH, Munich, Germany) using an automated cell dispenser (Biotek, Bad Friedrichshall, Germany). 24 h after cell seeding the expression plasmids were delivered using a Freedom EVO® robotic workstation (TECAN, Maennedorf, Switzerland) equipped with a MultiChannel Arm™. Cells were transiently transfected with 45 ng plasmid DNA ([…] and 40 ng RBM20 or 24 ng of the negative control pcDNA3.1 ad 45 ng with bacterial expression plasmid pBSSK). Compounds were added to the plates the following day using the same robotic platform. Luciferase activity was determined using Dual-Glo® Luciferase Assay System (Promega GmbH, Mannheim, Germany) on an Infinite® M1000 Pro (TECAN, Maennedorf, Switzerland) plate reader around 60 hours post-transfection. Assay robustness was evaluated by calculation z’ scores using an online tool provided by the Screening Unit at FMP Berlin (http://www.screeningunit-fmp.net/tools/z-prime.php).
# [2] = biological target: human serum albumin (HSA) (Homo sapiens, UniProt P02768); assay: Surface plasmon resonance, immobilized human serum albumin (positive control); assay type: binding; conditions: SPR, increasing concentrations
# Chain of human serum albumin (HSA) (P02768 25-609): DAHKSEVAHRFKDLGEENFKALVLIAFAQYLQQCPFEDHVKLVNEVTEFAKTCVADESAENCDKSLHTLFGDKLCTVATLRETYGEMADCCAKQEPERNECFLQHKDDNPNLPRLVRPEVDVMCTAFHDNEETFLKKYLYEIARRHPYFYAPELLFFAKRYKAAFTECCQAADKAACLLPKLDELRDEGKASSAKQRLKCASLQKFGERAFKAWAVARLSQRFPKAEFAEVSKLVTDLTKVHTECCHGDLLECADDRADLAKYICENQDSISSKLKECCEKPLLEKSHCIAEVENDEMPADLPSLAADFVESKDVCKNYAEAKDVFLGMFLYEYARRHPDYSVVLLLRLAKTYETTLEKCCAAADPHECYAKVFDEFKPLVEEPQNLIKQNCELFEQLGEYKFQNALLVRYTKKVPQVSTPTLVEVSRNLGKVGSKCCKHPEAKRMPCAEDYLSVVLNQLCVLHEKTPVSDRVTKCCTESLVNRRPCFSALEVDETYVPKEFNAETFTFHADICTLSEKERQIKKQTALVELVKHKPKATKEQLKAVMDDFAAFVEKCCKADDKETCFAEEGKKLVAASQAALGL
# [3] = biological target: T1, RNA recognition motif (RRM) of RBM20 (Homo sapiens, UniProt Q5T481); assay: Surface plasmon resonance, immobilized RBM20-RRM; assay type: binding; conditions: SPR, increasing concentrations
# T1 construct: The RRM domain of RBM20 was cloned into pGEX-6P-1 bacterial expression plasmid; GST (N); made in house; host or cells: E. coli Rosetta 2 (DE3)
# T1 sequence (Q5T481 518-593 limits assumed): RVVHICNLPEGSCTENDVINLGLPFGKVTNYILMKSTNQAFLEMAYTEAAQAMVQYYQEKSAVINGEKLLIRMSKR
# Method: The RRM domain of RBM20 was cloned into pGEX-6P-1 bacterial expression plasmid and expressed in E. coli Rosetta™ 2 (DE3) (Novagen by Merck KgaA, Darmstadt, Germany). After purification of the recombinant protein using glutathione-sepharose (Sigma-Aldrich Chemie GmbH, Munich, Germany) the purified fraction was dialyzed o/n in reaction buffer (20 mM HEPES pH7, 200 mM NaCl, 1 mM MgCl2, 10% glycerol). The surface plasmon resonance study (SPR) was performed on a Biacore T100 (GE Healthcare Europe GmbH, Freiburg, Germany) using amine coupling. Chip surface was activated with 0.2 M EDC/0.4 M NHS. 30 μg of human serum albumin (HSA) (positive control) or RBM20-RRM were linked to the activated chip surface at pH 4.5 in 10 mM sodium acetate.
# HEK293.EBNA cells = assay: Cell viability, resazurin based staining (PrestoBlue); parameters: species or system human; conditions: for IC50: Homo sapiens, HEK293-EBNA, HEK293 cells, 60 h post-transfection, RBM20/titin reporter transfected, read-out: Viability IC50
# Source text: as §1
# [4] = test system: HEK293 cells gene expression; assay: Expression profiling of digitoxin treated HEK293 cells (GSE36058); assay type: cell-based, human; conditions: digitoxin treated HEK293, GEO dataset GSE36058
# Method: Expression profiling data (Gene Expression Omnibus—GSE36058) was analyzed using AltAnalyze [16]—gene expression cut-off = 1.0.
# [5] = biological target: Na+/K+ ATPase human erythrocytes; parameters: method as in PMID 11072868; conditions: cited from earlier work
# [6] = test system: titin minigene TTN Ex241-43 transcripts; assay: RT-PCR / RT-qPCR of transcripts from titin minigene TTN Ex241-43 (I96-98); assay type: cell-based, human; conditions: HEK293 transfected with RBM20 and minigene I96-98
# Source text: The objective of our study was to identify and evaluate small molecules with the potential to modulate alternative splicing via an unbiased chemical high-throughput screening approach. Using transient transfection of a dual luciferase splicing reporter assay (DLR-assay) in HEK293.EBNA cells and a RBM20 expression construct, we investigated >34.000 substances for their effect on alternative exon exclusion from our RBM20 dependent titin PEVK4-13 splicing reporter. For the primary screen (pilot screen), each compound was tested at 10 μM (single point) and compared to an untreated control. Positive hits leading to differential exon usage (exceeding three standard deviations) were picked for independent validation in 9 serial 2-fold dilutions starting at 20 μM. Compounds that produced a concentration dependent effect were validated manually in the 96-well format and cytotoxicity was evaluated. To minimize the detection of false positives, we excluded compounds with structural homology to each luciferase’s natural substrate. To determine the EC50 of candidates we calculated dose response curves using a non-linear least-squares fitting routine available within the GNUPLOT package (accessible online: http://ic50.tk/index.html). We evaluated the effect on splice activity on the RNA level by RT-qPCR of isoforms generated from a titin minigene containing TTN Ex241-43 (corresponding to TTN I-band exon I96-98) in the presence of the potential splice modulators. […]
# Total RNA from HEK293.EBNA cells was extracted using RNeasy Micro Kit (Qiagen, Hilden, Germany) according to the manufacturer’s instructions. […] Quantitative RT-PCR was performed using SYBRGreen master mix (Applied Biosystems by Thermo Fisher Scientific Inc., USA) on a 7900 HT RT-cycler (Applied Biosystems by Thermo Fisher Scientific, Inc., USA). […] To quantification gene expression, we used the ΔΔCT method normalized to 18S or to the alternative transcripts generated from the splicing reporter. PSI values were calculated as ratio of unspliced and spliced reporter transcript. […]
# RBM20 protein levels = assay: RBM20 protein expression by immunoblot in co-transfected HEK293 cells; assay type: cell-based, human; conditions: proteasome inhibitor added to digoxin treated HEK293 cells
# Method: For immunodetection, HEK293.EBNA samples were harvested by rinsing them of the cell culture substrate using PBS at 37°C and subsequently used for downstream processing or snap frozen in liquid nitrogen. For protein extraction samples were suspended in RIPA buffer (50 mM Tris pH 8.0, 150 mM NaCl, 1% NP-40, 0.25% sodium deoxycholate, 1.0 mM EDTA; 0.1% SDS) and lysed via sonication with 20 bursts at 70% energy using a VialTweeter (Hielscher Ultrasonics GmbH, Teltow, Germany). Protein concentration was estimated after 20’ precipitation of cell debris at 13,000xg for 20 min at 4°C using BCA assay (Life Technologies GmbH, Darmstadt, Germany [23225]). Samples were kept cool at any time. Lysates were separated by SDS-PAGE [14] and blotted on PVDF membranes. Blotted antigens were probed with mouse anti-c-myc 9E10 ([M5546], Sigma-Aldrich Chemie GmbH, Munich, Germany) tag antibody at 1:2000 and detected using a sheep anti-mouse IgG-HRP (GE Healthcare Europe GmbH, Freiburg, Germany [NA9310V]) conjugate 1:5000 follow by visualization with AceGlow™ (VWR PEQL37) on a FUSION FX7 CCD camera system (Vilber Lourmat Deutschland GmbH, Eberhardzell, Germany).
# [7] = HEK293, Table 1, read-out: IC50 Splicing HEK293 cells
# [8] = dose response fit, head prints [μM], fits IC50 only
# [9] = FLuc/RLuc ratio, HEK293 cells, 96-well format, inset table of figure, read-out: Splicing IC50
molecule,measurement,setting,value
"CC(=O)O[C@H]1CC[C@@]2(C)[C@H](CC[C@@H]3[C@@H]2CC[C@]2(C)[C@@H](C4=CC(=O)OC4)CC[C@]32O)C1 [Digitoxigenin-3-acetate, Digitoxigenin 3-acetate]",effect on RBM20-mediated titin splicing (in words),"[1]; DLR assay, HEK293",independently validated
C[C@]12CC[C@H](O)C[C@H]1CC[C@@H]1[C@@H]2CC[C@]2(C)[C@@H](C3=CC(=O)OC3)CC[C@]12O [Digitoxigenin],binding to human serum albumin (HSA),[2],strongly bind
same,IC50,"[1]; HEK293, read-out: Splicing IC50",417 ± 99.5 nM
same,binding to RNA recognition motif (RRM) of RBM20,[3],not the RNA recognition motif (RRM) of RBM20
same,IC50,HEK293.EBNA cells,468 ± 26.9 nM
C[C@H]1O[C@@H](O[C@H]2[C@@H](O)C[C@H](O[C@H]3[C@@H](O)C[C@H](O[C@H]4CC[C@@]5(C)[C@H](CC[C@@H]6[C@@H]5CC[C@]5(C)[C@@H](C7=CC(=O)OC7)CC[C@]65O)C4)O[C@@H]3C)O[C@@H]2C)C[C@H](O)[C@@H]1O [Digitoxin],proteins associated with RBM20 dependent splicing down regulated (of 39),[4],10
same,proteins associated with RBM20 dependent splicing upregulated (of 39),[4],8
same,binding to human serum albumin (HSA),[2],strongly bind
same,effect on RBM20-mediated titin splicing (in words),"[1]; DLR assay, HEK293",efficiently inhibit RBM20 mediated splicing
same,IC50,[1]; [7],56 nM
same,Splicing Hill Coeff.,[1]; [8],2.3582 ± 1.3110
same,binding to RNA recognition motif (RRM) of RBM20,[3],not the RNA recognition motif (RRM) of RBM20
same,IC50,[5],0.25 nM
same,IC50,HEK293.EBNA cells,66.3 ± 5.5 nM
same,Viability Hill Coeff.,HEK293.EBNA cells; [8],2.0260 ± 0.2941
same,Viability Max,"HEK293.EBNA cells; fit maximum of relative viability, head prints [μM], fits IC50 only",1.0033 ± 0.0211
C[C@]12CC[C@H](O)C[C@H]1CC[C@@H]1[C@@H]2CC[C@]2(C)[C@@H](C3=CC(=O)OC3)[C@@H](O)C[C@]12O [Gitoxigenin],effect on RBM20-mediated titin splicing (in words),"[1]; DLR assay, HEK293",independently validated
C[C@]12CCC(=O)C=C1CC[C@@H]1[C@@H]2[C@@H](O)C[C@@]2(C)[C@H]1CC[C@]2(O)C(=O)CO [Hydrocortisone],effect on RBM20-mediated titin splicing (in words),"[1]; DLR assay, HEK293",did not interfere with splicing; also recorded: does not interfere with splicing activity; also recorded: do not interfere with RBM20 dependent splicing
COc1ccc(-c2cc(=O)c3c(O)cc(O)c(-c4cc(-c5cc(=O)c6c(O)cc(O)cc6o5)ccc4OC)c3o2)cc1 [Isoginkgetin],intron retention / mRNA maturation (in words),[6],reduces alternative splicing and mRNA maturation; also recorded: affects mRNA maturation with increasing concentration
same,IC50,[1]; [9],178000 nM
same,dose at which an effect on RBM20 dependent splicing and general mRNA maturation was found,[1]; only at the highest toxic dose,30 µM
same,IC50,HEK293.EBNA cells,10800 ± 13100 nM
CC(C)C[C@@H](C=O)NC(=O)[C@H](CC(C)C)NC(=O)[C@H](CC(C)C)NC(=O)OCc1ccccc1 [MG132] (Cbz-Leu-Leu-Leu-aldehyde),rescue of RBM20 protein expression under digoxin,RBM20 protein levels,did not rescue RBM20 protein expression
CO[C@H]1C[C@H](O[C@H]2CC[C@@]3(C)[C@H](CC[C@@H]4[C@@H]3CC[C@]3(C)[C@@H](C5=CC(=O)OC5)[C@@H](OC(C)=O)C[C@]43O)C2)O[C@@H](C)[C@@H]1O [Oleandrin],IC50,"[1]; DLR assay HEK293, read-out: splicing IC50",20 nM
same,IC50,HEK293.EBNA cells,30.5 ± 1.2 nM
C[C@@H]1O[C@@H](O[C@H]2C[C@@H](O)[C@]3(CO)[C@H]4[C@H](O)C[C@]5(C)[C@@H](C6=CC(=O)OC6)CC[C@]5(O)[C@@H]4CC[C@]3(O)C2)[C@H](O)[C@H](O)[C@H]1O [Ouabain],effect on RBM20-mediated titin splicing (in words),"[1]; DLR assay, HEK293",suppresses RBM20 mediated titin splicing
same,IC50,[1]; [7],1670 nM
same,IC50,[5],0.56 nM
C[C@]12CC[C@H]3[C@@H](CC[C@]4(O)C[C@@H](O)CC[C@]34CO)[C@@]1(O)CC[C@@H]2C1=CC(=O)OC1 [Strophanthidol],IC50,[1]; [9],3840 ± 443 nM
same,IC50,HEK293.EBNA cells,3070 ± 634 nM
Cymarol,effect on RBM20-mediated titin splicing (in words),"[1]; DLR assay, HEK293",independently validated
same,concentration at which effect on titin splicing starts,"[1]; DLR assay, N = 4",< 100 nM
